According to article PMC9775652, “Concomitant Administration of Red Ginseng Extract with Lactic Acid Bacteria Increases the Plasma Concentration of Deglycosylated Ginsenosides in Healthy Human Subjects” (Biomolecules, 2022):

Target: T1, P-gp (Homo sapiens, UniProt P08183)
T1 construct: host or cells: LLC-PK1-P-gp cells (passage no. 25–28)
Experiment: Transport of ginsenosides in P-gp-overexpressing LLC-PK1-P-gp cells
Format: in vitro ADME

T1 sequence (P08183 whole entry): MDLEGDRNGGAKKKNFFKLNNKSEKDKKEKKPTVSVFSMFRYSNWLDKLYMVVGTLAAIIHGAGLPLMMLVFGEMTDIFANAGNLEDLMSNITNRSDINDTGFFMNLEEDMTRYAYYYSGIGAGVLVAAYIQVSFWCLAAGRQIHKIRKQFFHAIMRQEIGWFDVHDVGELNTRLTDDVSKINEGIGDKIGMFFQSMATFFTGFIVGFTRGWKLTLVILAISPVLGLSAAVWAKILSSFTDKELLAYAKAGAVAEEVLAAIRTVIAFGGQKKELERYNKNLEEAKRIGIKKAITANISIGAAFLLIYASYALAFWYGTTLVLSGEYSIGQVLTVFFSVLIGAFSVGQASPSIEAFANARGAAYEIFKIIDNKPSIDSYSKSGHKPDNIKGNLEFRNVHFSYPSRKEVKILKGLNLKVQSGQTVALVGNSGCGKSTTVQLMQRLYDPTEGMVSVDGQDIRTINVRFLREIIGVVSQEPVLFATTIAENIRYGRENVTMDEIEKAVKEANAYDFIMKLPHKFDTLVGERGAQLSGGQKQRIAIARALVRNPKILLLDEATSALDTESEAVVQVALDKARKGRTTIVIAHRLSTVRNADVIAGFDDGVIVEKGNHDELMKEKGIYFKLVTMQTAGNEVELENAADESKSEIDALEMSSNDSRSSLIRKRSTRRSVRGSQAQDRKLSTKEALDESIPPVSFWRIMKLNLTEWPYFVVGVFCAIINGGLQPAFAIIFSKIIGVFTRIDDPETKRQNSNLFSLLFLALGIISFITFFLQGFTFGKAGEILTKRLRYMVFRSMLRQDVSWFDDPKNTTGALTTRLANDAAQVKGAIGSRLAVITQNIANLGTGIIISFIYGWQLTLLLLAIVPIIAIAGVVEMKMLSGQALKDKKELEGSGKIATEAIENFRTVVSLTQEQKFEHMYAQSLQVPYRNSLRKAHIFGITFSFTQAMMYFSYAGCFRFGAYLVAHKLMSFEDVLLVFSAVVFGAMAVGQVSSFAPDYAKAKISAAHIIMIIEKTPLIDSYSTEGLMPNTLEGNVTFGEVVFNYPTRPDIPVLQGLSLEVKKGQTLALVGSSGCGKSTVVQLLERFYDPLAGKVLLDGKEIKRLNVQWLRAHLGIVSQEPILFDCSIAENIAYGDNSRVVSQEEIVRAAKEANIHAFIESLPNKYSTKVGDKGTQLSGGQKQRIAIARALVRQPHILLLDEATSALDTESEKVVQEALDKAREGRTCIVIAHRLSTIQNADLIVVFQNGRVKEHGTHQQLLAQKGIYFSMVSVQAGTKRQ

CC(C)=CCC[C@](C)(O)[C@H]1CC[C@]2(C)[C@@H]1[C@H](O)C[C@@H]1[C@@]3(C)CC[C@H](O[C@@H]4O[C@H](CO)[C@@H](O)[C@H](O)[C@H]4O)C(C)(C)[C@@H]3CC[C@]12C [GRh2, ginsenoside Rh2]
CLint (intrinsic clearance) (P-gp-mediated B to A transport in LLC-PK1-P-gp cells): 502 µL/min | efflux ratio at 20 μM (pig, LLC-PK1, LLC-PK1-P-gp cells, 20 μM, B to A Papp divided by A to B Papp, read-out: ER): 18 | Papp A→B at 20 μM (pig, LLC-PK1-P-gp cells, 20 μM, mean ± SD, n = 3, read-out: A to B permeability): 0.08 ± 0.01 ×10⁻⁶ cm/s | Papp B→A at 20 μM (pig, LLC-PK1-P-gp cells, 20 μM, mean ± SD, n = 3, read-out: B to A permeability): 1.39 ± 0.13 ×10⁻⁶ cm/s
